# Laboratory results from patent US20160135455A1, “SAFENED HERBICIDAL COMPOSITIONS COMPRISING PYRIDINE CARBOXYLIC ACIDS” (Dow AgroSciences LLC, priority 2014, published 2016).
# Where two headings read alike, the source gives them in different places.
# Tests used:
# Assay type in all cases: in vivo
# [1] = system: velvetleaf (ABUTH, Abutilon theophrasti); test: Postemergence greenhouse trial, herbicidal efficacy on velvetleaf; conditions: post-emergence, 528 h, applied alone at 35 g/ha, postemergence
# Procedure: (§1) Seeds of the desired test plant species were planted in Sun Gro MetroMix® 306 planting mixture, which typically has a pH of 6.0 to 6.8 and an organic matter content of about 30 percent, in plastic pots with a surface area of 103.2 square centimeters (cm^2). When required to ensure good germination and healthy plants, a fungicide treatment and/or other chemical or physical treatment was applied. The plants were grown for 7-36 days (d) in a greenhouse with an approximate 14-hour (h) photoperiod which was maintained at about 23° C. during the day and 22° C. during the night. Nutrients and water were added on a regular basis and supplemental lighting was provided with overhead metal halide 1000-Watt lamps as necessary. The plants were employed for testing when they reached the second or third true leaf stage.
# (§2) Weighed amounts of technical material were dissolved in a volume of 97:3 volume per volume (v/v) acetone/dimethyl sulfoxide (DMSO) to stock solutions. […] The concentrated stock solutions were diluted with an aqueous mixture of 1.5% v/v of Agri-dex crop oil concentrate to provide the appropriate application rates. Compound requirements are based upon a 12 milliliter (mL) application volume at a rate of 187 liters per hectare (L/ha). Stocks solutions of the safeners were prepared following the same procedure. Spray solutions of the safeners and experimental compound mixtures were prepared by adding the stock solutions to the appropriate amount of dilution solution to form a 12 mL spray solution in two-way combinations. Formulated compounds were applied to the plant material with an overhead Mandel track sprayer equipped with 8002E nozzles calibrated to deliver 187 L/ha over an application area of 0.503 square meters (m^2) at a spray height of 18 inches (43 centimeters (cm)) above average plant canopy. Control plants were sprayed in the same manner with the solvent blank. All herbicide application (component a) rates are in g ae/ha and all safener (component b) rates are in g ai/ha.
# (§3) The treated plants and control plants were placed in a greenhouse as described above and watered by sub-irrigation to prevent wash-off of the test compounds. After 20-22 d, the condition of the test plants as compared with that of the control plants was determined visually and scored on a scale of 0 to 100 percent where 0 corresponds to no injury and 100 corresponds to complete kill. The condition of the test plants was compared with that of the control plants as determined visually and scored on a scale of 0 to 100 percent, where 0 corresponds to no injury and 100 corresponds to complete kill. Colby's equation was used to determine the herbicidal effects expected from the mixtures.
# [2] = system: lambsquarters (CHEAL, Chenopodium album); test: Postemergence greenhouse trial, herbicidal efficacy on lambsquarters; conditions: post-emergence, 528 h, applied alone at 35 g/ha, postemergence
# Procedure: as §1, §2, §3
# [3] = system: poinsettia (EPHHL, Euphorbia heterophylla); test: Postemergence greenhouse trial, herbicidal efficacy on poinsettia; conditions: applied alone at 35 g/ha, postemergence; for pest or weed control at 35 g/ha: Euphorbia heterophylla, post-emergence, 528 h, rated after 20-22 d, read-out: % visual injury, Obs, EPHHL; for Obs, % visual injury, EPHHL: scored 20-22 d
# Procedure: as §1, §2, §3
# [4] = system: chickweed (STEME, Stellaria media); test: Postemergence greenhouse trial, herbicidal efficacy on chickweed; conditions: post-emergence, 528 h, applied alone at 35 g/ha, postemergence
# Procedure: as §1, §2, §3
# [5] = system: pigweed (AMARE, Amaranthus retroflexus); test: Postemergence greenhouse trial, herbicidal efficacy on pigweed; conditions: post-emergence, 528 h, applied alone at 35 g/ha, postemergence
# Procedure: as §1, §2, §3
# [6] = system: wild pansy (VIOTR, Viola tricolor); test: Postemergence greenhouse trial, herbicidal efficacy on wild pansy; conditions: applied alone at 35 g/ha, postemergence; for pest or weed control at 35 g/ha: Viola tricolor, post-emergence, 528 h, scored 20-22 d, read-out: Obs, % visual injury, VIOTR; for % visual injury, Obs, VIOTR: rated after 20-22 d
# Procedure: as §1, §2, §3
# [7] = system: thistle (CIRAR, Cirsium arvense); test: Postemergence greenhouse trial, herbicidal efficacy on thistle; conditions: post-emergence, 528 h, applied alone at 35 g/ha, postemergence
# Procedure: as §1, §2, §3
# [8] = system: winter rape (BRSNW, Brassica napus); test: Postemergence greenhouse trial, herbicidal efficacy on winter rape; conditions: post-emergence, 528 h, applied alone at 35 g/ha, postemergence
# Procedure: as §1, §2, §3
# [9] = system: wild buckwheat (POLCO, Polygonum convolvulus); test: Postemergence greenhouse trial, herbicidal efficacy on wild buckwheat; conditions: Fallopia convolvulus, post-emergence, 528 h, applied alone at 35 g/ha, postemergence
# Procedure: as §1, §2, §3
# [10] = system: corn/maize (ZEAMX), Zea mays; test: Postemergence greenhouse trial, crop injury (phytotoxicity/safening) on corn/maize; conditions: applied alone at 35 g/ha, rated after 20-22 d
# Procedure: as §1
# as §2, with “All herbicide application (component a) rates are in g ae/ha and all safener (component b) rates are in g ai/ha.” left out
# as §3, with “Colby's equation was used to determine the herbicidal effects expected from the mixtures.” left out
# The safener fenchlorazole-ethyl was combined with compound 1, compound 2, compound 5, and compound 6, and applied to corn/maize (ZEAMX) and the phytotoxicity of the herbicidal compositions was measured. In addition, the efficacy of the herbicidal composition on velvetleaf (ABUTH, Abutilon theophrasti), pigweed (AMARE, Amaranthus retroflexus), winter rape (BRSNW, Brassica napus), lambsquarters (CHEAL, Chenopodium album), thistle (CIRAR, Cirsium arvense), nutsedge (CYPES, Cyperus esculentus), poinsettia (EPHHL, Euphorbia heterophylla), wild buckwheat (POLCO, Polygonum convolvulus), giant foxtail (SETFA, Setaria faberi), sorghum (SORVU, Sorghum bicolor), and chickweed (STEME, Stellaria media) was evaluated.
# The safener mefenpyr-diethyl was combined with compound 1, compound 2, and compound 5, and applied to corn/maize (ZEAMX) and the phytotoxicity of the herbicidal compositions were measured. […]
# [11] = system: sorghum (SORVU, Sorghum bicolor); test: Postemergence greenhouse trial, herbicidal efficacy on sorghum; conditions: applied alone at 35 g/ha; for % visual injury, Obs, SORVU: rated after 20-22 d; for Obs, % visual injury, SORVU: scored 20-22 d
# Procedure: as §1, §2, §3
# [12] = system: wheat (TRZAS), Triticum aestivum (spring wheat); test: Postemergence greenhouse trial, crop injury (phytotoxicity/safening) on wheat; conditions: applied alone at 35 g/ha, scored 20-22 d, 0 = no injury, 100 = complete kill
# Procedure: as §1, §2, §3
# The safener fenchlorazole-ethyl was combined with compound 1, compound 2, compound 3, compound 4, compound 5, and compound 6, and applied to wheat (TRZAS), and the phytotoxicity of the herbicidal compositions was measured. In addition, the efficacy of the herbicidal composition on velvetleaf (ABUTH, Abutilon theophrasti), pigweed (AMARE, Amaranthus retroflexus), winter rape (BRSNW, Brassica napus), lambsquarters (CHEAL, Chenopodium album), thistle (CIRAR, Cirsium arvense), nutsedge (CYPES, Cyperus esculentus), poinsettia (EPHHL, Euphorbia heterophylla), wild buckwheat (POLCO, Polygonum convolvulus), giant foxtail (SETFA, Setaria faberi), sorghum (SORVU, Sorghum bicolor), chickweed (STEME, Stellaria media), and wild pansy (VIOTR, Viola tricolor) was evaluated.
# The safener isoxadifen-ethyl was combined with compound 1, compound 2, compound 3, compound 4, compound 5, and compound 6, and applied to wheat (TRZAS), and the phytotoxicity of the herbicidal compositions was measured. […]
# [13] = system: nutsedge (CYPES, Cyperus esculentus); test: Postemergence greenhouse trial, herbicidal efficacy on nutsedge; conditions: applied alone at 35 g/ha; for % visual injury, Obs, CYPES: rated after 20-22 d
# Procedure: as §1, §2, §3
# [14] = system: giant foxtail (SETFA, Setaria faberi); test: Postemergence greenhouse trial, herbicidal efficacy on giant foxtail; conditions: applied alone at 35 g/ha
# Procedure: as §1, §2, §3
# [15] = rated after 20-22 d, read-out: % visual injury, Obs, ABUTH
# [16] = scored 20-22 d, read-out: Obs, % visual injury, ABUTH
# [17] = rated after 20-22 d, read-out: % visual injury, Obs, CHEAL
# [18] = scored 20-22 d, read-out: Obs, % visual injury, CHEAL
# [19] = rated after 20-22 d, read-out: % visual injury, Obs, STEME
# [20] = scored 20-22 d, read-out: Obs, % visual injury, STEME
# [21] = rated after 20-22 d, read-out: % visual injury, Obs, AMARE
# [22] = scored 20-22 d, read-out: Obs, % visual injury, AMARE
# [23] = rated after 20-22 d, read-out: % visual injury, Obs, CIRAR
# [24] = scored 20-22 d, read-out: Obs, % visual injury, CIRAR
# [25] = rated after 20-22 d, read-out: % visual injury, Obs, BRSNW
# [26] = scored 20-22 d, read-out: Obs, % visual injury, BRSNW
# [27] = rated after 20-22 d, read-out: % visual injury, Obs, POLCO
# [28] = scored 20-22 d, read-out: Obs, % visual injury, POLCO
smiles,measurement,setting,value
Nc1c(F)c(-c2ccc3cc[nH]c3c2F)nc(C(=O)O)c1Cl [compound 1],pest or weed control at 35 g/ha,[1]; [15],85%
same,pest or weed control at 35 g/ha,[1]; [16],85%
same,pest or weed control at 35 g/ha,[2]; [17],100%
same,pest or weed control at 35 g/ha,[2]; [18],100%
same,pest or weed control at 35 g/ha,[3],100%
same,"Obs, % visual injury, EPHHL",[3],100%
same,pest or weed control at 35 g/ha,[4]; [19],100%
same,pest or weed control at 35 g/ha,[4]; [20],100%
same,pest or weed control at 35 g/ha,[5]; [21],100%
same,pest or weed control at 35 g/ha,[5]; [22],100%
same,pest or weed control at 35 g/ha,[6],64%
same,"% visual injury, Obs, VIOTR",[6],64%
same,pest or weed control at 35 g/ha,[7]; [23],90%
same,pest or weed control at 35 g/ha,[7]; [24],90%
same,plant injury at 35 g/ha,[8]; [25],99%
same,plant injury at 35 g/ha,[8]; [26],99%
same,pest or weed control at 35 g/ha,[9]; [27],99%
same,pest or weed control at 35 g/ha,[9]; [28],99%
COC(=O)c1nc(-c2ccc3ccn(C(=O)C(C)(C)C)c3c2F)c(F)c(N)c1Cl [compound 5],pest or weed control at 35 g/ha,[1]; [15],80%
same,pest or weed control at 35 g/ha,[1]; [16],80%
same,pest or weed control at 35 g/ha,[2]; [17],100%
same,pest or weed control at 35 g/ha,[2]; [18],100%
same,"% visual injury, Obs, ZEAMX",[10],35%
same,pest or weed control at 35 g/ha,[3],100%
same,pest or weed control at 35 g/ha,[4]; [19],85%
same,pest or weed control at 35 g/ha,[4]; [20],85%
same,pest or weed control at 35 g/ha,[5]; [21],100%
same,pest or weed control at 35 g/ha,[5]; [22],100%
same,"% visual injury, Obs, SORVU",[11],60%
same,"Obs, % visual injury, SORVU",[11],60%
same,pest or weed control at 35 g/ha,[6],40%
same,"% visual injury, Obs, VIOTR",[6],40%
same,"Obs, % visual injury, TRZAS",[12],45%
same,pest or weed control at 35 g/ha,[7]; [23],80%
same,pest or weed control at 35 g/ha,[7]; [24],80%
same,plant injury at 35 g/ha,[8]; [25],97%
same,plant injury at 35 g/ha,[8]; [26],97%
same,"% visual injury, Obs, CYPES",[13],0%
same,pest or weed control at 35 g/ha,[9]; [27],100%
"CCOC(=O)c1nc(C(Cl)(Cl)Cl)n(-c2ccc(Cl)cc2Cl)n1 [fenchlorazole-ethyl, reference compound]",pest or weed control at 35 g/ha,[1]; [15],0%
same,pest or weed control at 35 g/ha,[1]; [16],0%
same,pest or weed control at 35 g/ha,[2]; [17],0%
same,pest or weed control at 35 g/ha,[2]; [18],0%
same,"% visual injury, Obs, SETFA",[14]; rated after 20-22 d,0%
same,"Obs, % visual injury, SETFA",[14]; scored 20-22 d,0%
same,pest or weed control at 35 g/ha,[3],0%
same,"Obs, % visual injury, EPHHL",[3],0%
same,pest or weed control at 35 g/ha,[4]; [19],0%
same,pest or weed control at 35 g/ha,[4]; [20],0%
same,pest or weed control at 35 g/ha,[5]; [21],0%
same,pest or weed control at 35 g/ha,[5]; [22],0%
same,"% visual injury, Obs, SORVU",[11],0%
same,"Obs, % visual injury, SORVU",[11],0%
same,pest or weed control at 35 g/ha,[6],0%
same,pest or weed control at 35 g/ha,[7]; [23],0%
same,pest or weed control at 35 g/ha,[7]; [24],0%
same,plant injury at 35 g/ha,[8]; [25],0%
same,plant injury at 35 g/ha,[8]; [26],0%
same,"% visual injury, Obs, CYPES",[13],0%
same,"Obs, % visual injury, CYPES",[13]; scored 20-22 d,0%
same,pest or weed control at 35 g/ha,[9]; [27],0%
same,pest or weed control at 35 g/ha,[9]; [28],0%
